Patent US7931904B2, “Modulation of MUC1 activity” (Dana Farber Cancer Institute, Inc., priority 2005, dated 2011)

Legend:
ZR-75-1 cells [1] = experiment: Colony formation assay; assay type: cell-based, human; details: ZR-75-1/vector vs ZR-75-1/MUC1siRNA cells, 12-48 h treatment, 8 d culture
Experimental: (§1) Colony formation assays. Aliquots containing 500 cells were plated into individual wells of 6-well culture plates containing 2 ml/well complete medium and incubated for 18-24 h at 37° C. The cells were treated with CDDP or etoposide for 12-48 h, washed and incubated for 8 d. Resulting colonies were stained with crystal violet and counted manually.

[2] = system: HCT116/MUC1 as compared to HCT116/vector cells; experiment: Colony formation assay; assay type: cell-based, human; details: 12-48 h treatment, 8 d culture
Experimental: as §1

ZR-75-1 cells [3] = experiment: ChIP with anti-MUC1 C-ter antibody, Bax gene PP; assay type: cell-based, human; details: 50 μM, time course
Experimental: (§2) Chromatin immunoprecipitation (ChIP) and Repeat ChIP (Re-ChIP) assays. ChIP assays were performed as previously described [Shang et al. (2000) Cell 103:843-852] using anti-MUC1 C-ter antibody, anti-p53 antibody (Ab-6; Oncogene Research Products), anti-CBP antibody (C-1; Santa Cruz Biotechnology), anti-HDAC1 antibody (Upstate Biotechnology Inc., Waltham, Mass.), anti-Ac-H4 (Upstate Biotechnology Inc.), anti-TBP antibody (58C9; Santa Cruz Biotechnology), anti-TFIIB antibody (IIB8; Santa Cruz Biotechnology), or anti-TAFII250 antibody (6B3; Santa Cruz Biotechnology). For PCR, 2 μl from a 50 μl DNA extraction were used with 30-38 cycles of amplification. The primers for the p21 gene promoter p53-responsive elements (p53RE1 and p53RE2) have been previously described [Liu et al. (2003) J. Biol. Chem. 277:17557-17565]. The primers for the p21 gene control region (CR) were (forward: 5′-[…]-3′ (SEQ ID NO:14); reverse 5′-[…]-3′ (SEQ ID NO:15)) and the p21 gene PP were (forward: 5′-[…]-3′ (SEQ ID NO:16); reverse: 5′-[…]-3′ (SEQ ID NO:17)). Primers used for the Bax gene promoter p53RE were (forward: 5′-[…]-3′ (SEQ ID NO:18); reverse: 5′-[…]-3′ (SEQ ID NO:19)), Bax gene control region (CR) were (forward: 5′-[…]-3′ (SEQ ID NO:20); reverse: 5′-[…]-3′ (SEQ ID NO:21)) and the Bax gene PP were (forward: 5′-[…]-3′ (SEQ ID NO:22); reverse: 5′-[…]-3′ (SEQ ID NO:23)).

HCT116/MUC1 cells [4] = experiment: ChIP with anti-MUC1 C-ter antibody, Bax gene PP; assay type: cell-based, human; details: 50 μM, time course
Experimental: as §2

ZR-75-1 cells [5] = experiment: ChIP with anti-MUC1 C-ter antibody, p21 gene p53RE2; assay type: cell-based, human; details: 50 μM, kinetic analysis
Experimental: as §2

HCT116/MUC1 cells [6] = experiment: as above; assay type: cell-based, human; details: 50 μM, kinetic analysis
Experimental: as §2

ZR-75-1 cells [7] = experiment: anti-p53 immunoprecipitation and anti-MUC1 C-ter immunoblot; assay type: cell-based, human; details: 50 or 100 μM, 24 h
Experimental: (§3) Immunoblotting and immunoprecipitation. Cell lysates were prepared from subconfluent cells as previously described [Wei et al. (2003) J. Biol. Chem. 278:29288-29297]. Immunoblot analysis was performed with anti-p53 antibody (Ab-2, Ab-6; Oncogene Research Products, San Diego, Calif.), anti-MUC1 N-ter antibody [the DF3 monoclonal antibody that binds to the N-terminal segment of human MUC1; Kufe et al. (1984) Hybridoma 3:223-232], anti-MUC1 C-ter antibody (Ab-5 that binds to the C-terminal segment of human MUC1; Neomarkers, Freemont, Calif.), anti-β-actin antibody (Sigma), anti-Myc antibody (Ab-1; Oncogene Research Products), anti-Bax antibody antibody (Santa Cruz Biotechnology; Santa Cruz, Calif.) and anti-p21 (Santa Cruz Biotechnology). Lysates were subjected to immunoprecipitation with anti-p53 or anti-Myc antibody and the immune complexes were analyzed by immunoblotting.

HCT116/MUC1 cells [8] = experiment: as above; assay type: cell-based, human; details: 50 or 100 μM, 24 h
Experimental: as §3

HCT116/vector cells [9] = experiment: ChIP with anti-p53 antibody, p21 gene p53RE2; assay type: cell-based, human; details: 50 μM, 8 h
Experimental: as §2

HCT116/vector cells [10] = experiment: Flow cytometry of cell cycle (DNA content); assay type: cell-based, human; details: 48 h
Experimental: (§4) Flow cytometry. Cells were fixed with 80% ice-cold ethanol, incubated in phosphate buffered saline (PBS) containing 30 μg/ml RNase (Roche Applied Science) for 60 min at 37° C. and then stained with propidium iodide (Sigma) for 30 min at room temperature in the dark. DNA content was analyzed by flow cytometry (Coulter EPICS XL-MCL; Miami, Fla.).

HCT116/MUC1 cells [11] = experiment: Flow cytometry of cell cycle (DNA content); assay type: cell-based, human; details: 48 h
Experimental: as §4

p53 [12] = molecular target: T1, p53 (Homo sapiens, UniProt P04637); experiment: GST pull-down of 35S-labeled p53 by GST-MUC1-CD variants; assay type: binding; details: GST fusion proteins, 90 min at 4° C.
T1 construct: made in house; host or cells: cell-free TNT in vitro transcription/translation reaction (Promega)
Text: GST pull-down assays. […] After washing, the adsorbed proteins were resolved by SDS-PAGE and analyzed by autoradiography or Coomassie blue staining.

p53 [13] = molecular target: p53 (Homo sapiens, UniProt P04637, R273H); experiment: Co-immunoprecipitation of Myc-MUC1-CD variants with p53 in transfected U2OS cells; assay type: cell-based; details: transiently transfected U2OS cells
Experimental: as §3
Plasmid construction and transfection. […] Transfections were performed in 60 mm tissue culture dishes using Fugene®-6 (Roche Applied Science, Indianapolis, Ind.) or, for the luciferase assays, in 24 well tissue culture plates using the calcium phosphate method (Invitrogen, Carlsbad, Calif.). […]

Compound | clonogenic survival following drug treatment (ZR-75-1 cells [1]) | clonogenic survival of drug-treated cells [2] | MUC1 occupancy of the Bax gene PP (ZR-75-1 cells [3]) | MUC1 occupancy of the Bax gene PP (HCT116/MUC1 cells [4]) | MUC1 occupancy of p21 gene p53RE2 (ZR-75-1 cells [5]) | MUC1 occupancy of p21 gene p53RE2 (HCT116/MUC1 cells [6]) | binding of endogenous MUC1 and p53 (ZR-75-1 cells [7]) | association of p53 and MUC1 (HCT116/MUC1 cells [8]) | p53 occupancy of the p21 gene p53RE2 (HCT116/vector cells [9]) | cell cycle progression (HCT116/vector cells [10]) | cell cycle progression (HCT116/MUC1 cells [11]) | binding to 35S-labeled p53 in vitro (p53 [12]) | complex formation with p53 in cells (p53 [13])
N.N.[Cl][Pt][Cl] [cisplatin] | increased by MUC1 expression | higher | increased through 4-6 h | increased through 4-6 h | increases | increases | Increased binding of endogenous MUC1 and p53 | increase in the association of p53 and MUC1 | increased | G1 arrest of cell cycle progression | G1 arrest of cell cycle progression |  | 
COc1cc([C@@H]2c3cc4c(cc3[C@@H](O[C@@H]3O[C@@H]5CO[C@@H](C)O[C@H]5[C@H](O)[C@H]3O)[C@H]3COC(=O)[C@H]23)OCO4)cc(OC)c1O [etoposide] | increased by MUC1 expression | higher | increased through 4-6 h | increased through 4-6 h | increases | increases | Increased binding of endogenous MUC1 and p53 | increase in the association of p53 and MUC1 | increased | G1 arrest of cell cycle progression | G1 arrest of cell cycle progression |  | 
MUC1-CD(1-51): deletion variant of MUC1-CD, amino acids 1-51 (SEQ ID NO:5) (CQCRRKNYGQLDIFPARDAYHPMSEYPTYHTHGRYVPPSSTNRSPYEKVSE; listed as Homo sapiens) |  |  |  |  |  |  |  |  |  |  |  | sufficient to form a complex with p53 in vitro | in vivo binding of p53
